This note sets out measurements from patent publication US9512120B2, “Microbicidally active imidazopyridine derivatives” (Syngenta Participations AG, priority 2013, dated 2016).

Data set [1] concerns Botryotinia fuckeliana (Botrytis cinerea). Description: Botryotinia fuckeliana (Botrytis cinerea) / liquid culture (gray mould). It counts as cell-based. To be noted: Vogels broth, 24° C., 3-4 days after application, read-out: control of Botryotinia fuckeliana (inhibition of growth, photometric). Put shortly: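 Botrytis cinerea conidia in Vogels broth were added to test compound applied from DMSO at 200 ppm. Incubation at 24 °C; growth inhibition read photometrically 3-4 days after application.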

For data set [2], the system named is Puccinia recondita f. sp. Tritici. The data set is described as follows: Puccinia recondita f. sp. tritici / wheat / leaf disc preventative (brown rust). It counts as in vivo. The note with it: foliar, wheat leaf segments cv Kanzler, inoculated 1 day after application, assessed 7-9 days after application, read-out: control of Puccinia recondita f. sp. Tritici (percent disease control compared to untreated). Put shortly: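 Leaf segments of wheat cv Kanzler on agar were sprayed with formulated compound at 200 ppm and inoculated with spores 1 day later. Incubation was at 19° C, 75% relative humidity and 12/12 h light/dark. Activity was scored 7-9 days after application as percent disease control versus untreated.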

In a further data set the test system is Plasmopara viticola. Description: Plasmopara viticola / grape / leaf disc preventative. Format: in vivo. The note with it: foliar, grape vine leaf disks, inoculated 1 day after application, assessed 6-8 days after application, read-out: control of Plasmopara viticola (percent disease control compared to untreated).
Data set [3] has as its system Thanatephorus cucumeris (Rhizoctonia solani). Description: Thanatephorus cucumeris (Rhizoctonia solani) / liquid culture (foot rot, damping-off). It counts as cell-based. To be noted: PDB, 24° C., 3-4 days after application, read-out: control of Thanatephorus cucumeris (inhibition of growth, photometric). The essentials:
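Mycelial fragments in potato dextrose broth exposed to test compounds at 200 ppm (from DMSO solution), incubated at 24° C. Growth inhibition read photometrically 3-4 days after application.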

Data set [4] relates to Mycosphaerella graminicola (Septoria tritici). Description: Mycosphaerella graminicola (Septoria tritici) / liquid culture (Septoria blotch). Format: cell-based. The note with it: Zymoseptoria tritici, PDB, 24° C., 4-5 days after application, read-out: control of Mycosphaerella graminicola (inhibition of growth, photometric). Put shortly: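 Cryo-stored conidia in potato dextrose broth were added to compound in DMSO at 200 ppm in microtiter plates. Plates were incubated at 24 °C and growth inhibition was measured photometrically 4–5 days after application.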

For a further data set, the system named is Pyrenophora teres. Description: Pyrenophora teres / barley / leaf disc preventative (net blotch). Format: in vivo. To be noted: foliar, barley leaf segments cv Hasso, inoculated two days after application, assessed 5-7 days after application, read-out: control of Pyrenophora teres (disease control compared to untreated). The essentials: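 Barley cv Hasso leaf segments on agar sprayed with compound at 200 ppm, inoculated with spores two days later. Kept at 20 °C, 65% RH, 12/12 h light; disease control versus untreated scored 5-7 days after application.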

Data set [5] concerns Glomerella lagenarium (Colletotrichum lagenarium). The data set is described as follows: Glomerella lagenarium (Colletotrichum lagenarium) / liquid culture (anthracnose). It counts as cell-based. To be noted: Colletotrichum orbiculare, PDB, 24° C., 3-4 days after application, read-out: control of Glomerella lagenarium (inhibition of growth, photometric). The essentials: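 Cryopreserved conidia suspended in potato dextrose broth were added to compound in DMSO applied at 200 ppm. Plates incubated at 24° C; growth inhibition read photometrically 3-4 days after application.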

Data set [6] deals with Monographella nivalis (Microdochium nivale). The data set is described as follows: Monographella nivalis (Microdochium nivale) / liquid culture (foot rot cereals). It counts as cell-based. The note with it: PDB, 24° C., 4-5 days after application, read-out: control of Monographella nivalis (inhibition of growth, photometric). How it is done:
Monographella nivalis (Microdochium nivale)/Liquid Culture (Foot Rot Cereals): Conidia of the fungus from cryogenic storage were directly mixed into nutrient broth (PDB potato dextrose broth). After placing a DMSO solution of test compound into a 96-well microtiter plate at an application rate of 200 ppm, the nutrient broth containing the fungal spores was added. The test plates were incubated at 24° C. and the inhibition of growth was determined photometrically 4-5 days after application.

The subject of the next data set is Gaeumannomyces graminis. The data set is described as follows: Gaeumannomyces graminis / liquid culture (take-all of cereals). It counts as cell-based. To be noted: PDB, 24° C., 4-5 days after application, read-out: control of Gaeumannomyces graminis (inhibition of growth, photometric). Put shortly: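 Mycelial fragments in potato dextrose broth were exposed to compound from DMSO at 200 ppm in microtiter plates. Incubation at 24 °C; growth inhibition read photometrically 4-5 days after application.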

Data set [7] relates to Phaeosphaeria nodorum (Septoria nodorum). Description: Phaeosphaeria nodorum (Septoria nodorum) / wheat / leaf disc preventative (glume blotch). The note with it: Parastagonospora nodorum, foliar, wheat leaf segments cv Kanzler, inoculated 2 days after application, assessed 5-7 days after application, read-out: control of Phaeosphaeria nodorum (percent disease control compared to untreated). Format: in vivo. The essentials:
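Wheat leaf segments (cv Kanzler) on agar sprayed with compound at 200 ppm, inoculated with spores 2 days later. Incubated at 20° C., 75% relative humidity, 12/12 h light/dark; percent disease control versus untreated scored 5-7 days after application.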

The test system of data set [8] is Mycosphaerella arachidis (Cercospora arachidicola). The data set is described as follows: Mycosphaerella arachidis (Cercospora arachidicola) / liquid culture (early leaf spot). It counts as cell-based. The note with it: PDB, 24° C., 4-5 days after application, read-out: control of Mycosphaerella arachidis (inhibition of growth, photometric). How it is done:
Mycosphaerella Arachidis (Cercospora arachidicola)/Liquid Culture (Early Leaf Spot): Conidia of the fungus from cryogenic storage were directly mixed into nutrient broth (PDB potato dextrose broth). After placing a DMSO solution of test compound into a 96-well microtiter plate at an application rate of 200 ppm, the nutrient broth containing the fungal spores was added. The test plates are incubated at 24° C. and the inhibition of growth was determined photometrically 4-5 days after application.

SMILES strings stand for the structures.

On to `CCn1c(-n2ncnc2N)nc2cncc(/C(C)=N\OC(C)C)c21` [Compound 166], for which the inhibition at 20 ppm in data set [1], in [3], in data set [4] and in data set [5] was at least 80% each time. Moreover, the pest or weed control at 200 ppm (in [2]; with Plasmopara viticola; in the data set with Pyrenophora teres) was at least 80% throughout.
In the case of `CCn1c(-n2ncnc2N)nc2cncc(C(C)=NOCc3ccccc3OC)c21` [Compound 146], the inhibition at 20 ppm in [1], in data set [3], in data set [4] and in data set [5] was at least 80% throughout. Further, the pest or weed control at 200 ppm (in data set [2]; with Plasmopara viticola; with Pyrenophora teres) was at least 80% each time.
In turn, `CCn1c(-n2ncnc2N)nc2cncc(Cc3ccccc3)c21` [Compound 25, 2-(7-benzyl-1-ethylimidazo[4,5-c]pyridin-2-yl)-1,2,4-triazol-3-amine] gave a melting point of 220 to 224 °C. Moreover, in data set [1], the inhibition at 20 ppm is at least 80%. In [6], the inhibition at 20 ppm was at least 80%. Besides, the inhibition at 20 ppm in the data set on Gaeumannomyces graminis was at least 80%. Moreover, the inhibition at 20 ppm in data set [3] was at least 80%. In [4], the inhibition at 20 ppm is at least 80%.
`CCn1c(-n2ncnc2N)nc2cncc(CCc3ccccc3)c21` [Compound 24, 2-[1-ethyl-7-(2-phenylethyl)imidazo[4,5-c]pyridin-2-yl]-1,2,4-triazol-3-amine] registered a melting point of 205 to 208 °C. Moreover, the inhibition at 20 ppm in data set [1] was at least 80%. Further, the pest or weed control at 200 ppm in data set [2] was at least 80%. For the same molecule, the inhibition at 20 ppm in data set [6] was at least 80%. Also, in the data set with Gaeumannomyces graminis, the inhibition at 20 ppm is at least 80%. In [3], the inhibition at 20 ppm is at least 80%. Besides, in data set [4], the inhibition at 20 ppm was at least 80%. The pest or weed control at 200 ppm in the data set on Pyrenophora teres was at least 80%. Moreover, the inhibition at 20 ppm in data set [5] was at least 80%.
In turn, `Nc1ncnn1-c1nc2cncc(Br)c2n1CC(F)(F)F` [Compound 76, 2-[7-bromo-1-(2,2,2-trifluoroethyl)imidazo[4,5-c]pyridin-2-yl]-1,2,4-triazol-3-amine] displayed a melting point of 234 to 236 °C. The inhibition at 20 ppm in data set [1] is at least 80%. Moreover, in the data set on Gaeumannomyces graminis, the inhibition at 20 ppm was at least 80%. Also, the pest or weed control at 200 ppm in data set [7] was at least 80%. For the same molecule, in data set [3], the inhibition at 20 ppm was at least 80%. Besides, the inhibition at 20 ppm in data set [4] was at least 80%. The pest or weed control at 200 ppm with Pyrenophora teres was at least 80%. In addition, in [5], the inhibition at 20 ppm is at least 80%.
As to `CCn1c(-n2ncnc2N)nc2cncc(C(C)=NOCc3c(Cl)cccc3Cl)c21` [Compound 160], the pest or weed control at 200 ppm (in [2]; in the data set on Plasmopara viticola; with Pyrenophora teres) was at least 80% each time. In addition, the inhibition at 20 ppm in data set [3] and in data set [4] was at least 80% throughout.
Take `CCn1c(-n2ncnc2N)nc2cncc(C(C)=NOC)c21` [Compound 133]: the melting point was 170 to 173 °C. Besides, the inhibition at 20 ppm in data set [1] was at least 80%. In addition, the inhibition at 20 ppm in data set [6] was at least 80%. Besides, in the data set with Gaeumannomyces graminis, the inhibition at 20 ppm was at least 80%. Also, the inhibition at 20 ppm in data set [8] was at least 80%. For the same molecule, in data set [3], the inhibition at 20 ppm is at least 80%. The inhibition at 20 ppm in data set [4] was at least 80%. Further, the pest or weed control at 200 ppm with Pyrenophora teres is at least 80%.
As to `CCn1c(-n2ncnc2N)nc2cncc(-c3ccc(C)cc3)c21` [Compound 28, 2-[1-ethyl-7-(4-methylphenyl)imidazo[4,5-c]pyridin-2-yl]-1,2,4-triazol-3-amine], the melting point fell in the range of 234 to 236 °C. Besides, the inhibition at 20 ppm in data set [1] was at least 80%. The pest or weed control at 200 ppm in [2] was at least 80%. Besides, the inhibition at 20 ppm in [3] was at least 80%. For the same molecule, the inhibition at 20 ppm in data set [4] was at least 80%. Also, the pest or weed control at 200 ppm in the data set on Pyrenophora teres was at least 80%. Also, in data set [5], the inhibition at 20 ppm is at least 80%.
`CCn1c(-n2ncnc2N)nc2cncc(C(C)=NOC(C)(C)C)c21` [Compound 140] yielded a melting point of 171 to 175 °C. In addition, the inhibition at 20 ppm in [1] is at least 80%. For the same molecule, the pest or weed control at 200 ppm in data set [2] was at least 80%. Also, the inhibition at 20 ppm in the data set with Gaeumannomyces graminis was at least 80%. Moreover, in data set [8], the inhibition at 20 ppm was at least 80%. Besides, the inhibition at 20 ppm in data set [3] is at least 80%. Besides, the inhibition at 20 ppm in data set [4] is at least 80%. In addition, the pest or weed control at 200 ppm in the data set on Pyrenophora teres was at least 80%. The inhibition at 20 ppm in [5] is at least 80%.
Turning to `CCn1c(-n2ncnc2N)nc2cncc(-c3cccc4ccccc34)c21` [Compound 40, 2-(1-ethyl-7-naphthalen-1-ylimidazo[4,5-c]pyridin-2-yl)-1,2,4-triazol-3-amine], the pest or weed control at 200 ppm with Plasmopara viticola and in the data set with Pyrenophora teres was at least 80% in each case. The inhibition at 20 ppm in data set [3] and in data set [4] was at least 80% throughout.
For the molecule `CCn1c(-n2ncnc2N)nc2cncc(C(C)=NOCC(F)(F)F)c21` [Compound 169], the inhibition at 20 ppm in [1], in data set [3], in data set [4] and in data set [5] was at least 80% in each case. For the same molecule, the pest or weed control at 200 ppm (in data set [2]; in the data set on Plasmopara viticola; with Pyrenophora teres) was at least 80% each time.
As to `CCCn1c(-n2ncnc2N)nc2cncc(-c3ccc(Cl)cc3Cl)c21` [Compound 118, 2-[7-(2,4-dichlorophenyl)-1-propylimidazo[4,5-c]pyridin-2-yl]-1,2,4-triazol-3-amine], the inhibition at 20 ppm (in [1]; in [6]; in the data set on Gaeumannomyces graminis; in [3]; in data set [4]; in [5]) was at least 80% each time. Further, the pest or weed control at 200 ppm (in the data set with Plasmopara viticola; in data set [7]; in the data set on Pyrenophora teres) was at least 80% throughout.
For `Nc1nc(C(F)(F)F)nn1-c1nc2cnccc2n1C1CCCCC1` [Compound 3, 2-(1-cyclohexylimidazo[4,5-c]pyridin-2-yl)-5-(trifluoromethyl)-1,2,4-triazol-3-amine], the melting point lay in the range of 203 to 206 °C. For the same molecule, the inhibition at 20 ppm in [5] is at least 80%.

Broadly, the inhibition is the share of the control response that was lost under treatment. For orientation: melting point means the temperature, or range, at which the solid turns liquid.
